“Also recorded” adds a separate entry of the source. Where two headings read alike, the source gives them in different places. Ends that are not written are not given here. Peptide text beside a SMILES is read from it.
Experiments:
[1] = system: 38 AMP-adapted E. coli K-12 BW25113 lines; test: Cross-resistance of AMP-resistant lines (relative MIC); format: cell-based, Escherichia coli; conditions: for Relative MIC (MICevolved / MICcontrol): >1 cross-resistance, <1 collateral sensitivity
Excerpt: Next, we have explored whether laboratory evolved AMP resistance provide any cross-resistance to AMPs which appear to be less prone to resistance. […] We have measured the changes in susceptibilities of these strains to the AMPs (PLEU, PGLA, R8, IND, TPII, and CP1) towards which resistance evolution was limited, as well as to the human peptide LL37. LL37 is a cathelicidin-derived AMP present throughout the human body with critical defensive roles. Cross-resistance was defined as a minimum of twofold increase in resistance level.
(§1) MICs were determined using a standard serial broth dilution technique. Briefly, 11-step serial dilutions were prepared in 96-well microtiter plates with three replicates per strain and antimicrobial compound. Each experiment was repeated at least twice. 5 × 10^5 cells/mL were inoculated into each well, and the plates were incubated at 30 °C in case of E. coli K-12 BW25113, and its antibiotic and AMP-adapted lines, or 37 °C in case of the other bacterial species. Plates were shaken at 300 r.p.m. during incubation for 24 and 18 h, respectively. Cell growth was monitored by measuring the optical density (OD600 value, Biotek Synergy 2 microplate reader was used for this purpose). […] Relative MIC was calculated as follows: MICrelative = MICevolved/MICcontrol.

E.coli K-12 BW25113 = format: cell-based, Escherichia coli; conditions: for MIC (freshly prepared AMP): plates inoculated immediately; for MIC (pre-incubated AMP): plates pre-incubated 72 hours before inoculation
Procedure: as §1
Supplementary Table 7- Effect of incubation time on the minimum inhibitory concentration (MIC) of AMPs. We tested whether the prolonged incubation time can affect the MIC of AMPs. To test this, two sets of AMP containing MIC plates were prepared in parallel. The first set was immediately inoculated with E.coli K-12 BW25113, while the second set was pre-incubated 72 hours before inoculation with the […]
observed in the MIC between freshly prepared and pre-incubated plates. […]

[2] = system: Methicillin-resistant Staphylococcus aureus subsp. aureus ATCC 43300; format: cell-based; conditions: broth dilution, 37 °C, 18 h
Procedure: (§2) Unless otherwise indicated, we used E. coli K-12 BW25113 in all high-throughput experiments. To investigate the impact of mutation rate on evolution of AMP resistance, we initiated laboratory evolution with a mutator strain E. coli mutD5 that carries mutations in the dnaQ gene (L73W and A164V).
as §1

[3] = system: Klebsiella pneumoniae NCTC 13440; format: cell-based; conditions: broth dilution, 37 °C, 18 h
Procedure: as §2, §1

[4] = system: Escherichia coli ATCC BAA 2469; format: cell-based; conditions: broth dilution, 37 °C, 18 h
Procedure: as §2, §1

[5] = system: Salmonella enteritidis HNCMB 10092; format: cell-based; conditions: broth dilution, 37 °C, 18 h
Procedure: as §2, §1

[6] = system: Escherichia coli ATCC 35218; format: cell-based; conditions: broth dilution, 37 °C, 18 h
Procedure: as §2, §1

[7] = system: Enterococcus faecium ATCC 700221; format: cell-based; conditions: broth dilution, 37 °C, 18 h
Procedure: as §2, §1

[8] = system: Escherichia coli NCTC 13351; format: cell-based; conditions: broth dilution, 37 °C, 18 h
Procedure: as §2, §1

[9] = system: Staphylococcus aureus subsp. aureus ATCC 29213; format: cell-based; conditions: broth dilution, 37 °C, 18 h
Procedure: as §2, §1

[10] = system: Pseudomonas aeruginosa ATCC 27853; format: cell-based; conditions: broth dilution, 37 °C, 18 h
Procedure: as §2, §1

K. pneumoniae ATCC 10031 = format: cell-based, Klebsiella pneumoniae; conditions: Klebsiella pneumoniae ATCC 10031; broth dilution, 37 °C, 18 h
Procedure: as §2, §1

E. coli ATCC 25922 = format: cell-based, Escherichia coli; conditions: Escherichia coli ATCC 25922; broth dilution, 37 °C, 18 h
Procedure: as §2, §1

[11] = time allowed for bacterial growth 24 hours
[12] = time allowed for bacterial growth 48 hours
[13] = time allowed for bacterial growth 72 hours

## CC[C@H](C)[C@@H]1NC(=O)CNC(=O)[C@H](CCCNC(=N)N)NC(=O)[C@H](Cc2ccc(O)cc2)NC(=O)[C@@H]2CSSC[C@H](NC1=O)C(=O)N[C@@H](Cc1ccc(O)cc1)C(=O)N[C@@H](CCCNC(=N)N)C(=O)N[C@@H](CCCCN)C(=O)N[C@H](C(=O)N[C@@H](CCCNC(=N)N)C(N)=O)CSSC[C@H](NC(=O)[C@H](Cc1c[nH]c3ccccc13)NC(=O)[C@@H](N)CCCNC(=N)N)C(=O)N[C@@H](Cc1ccccc1)C(=O)N[C@@H](CCCNC(=N)N)C(=O)N[C@@H](C(C)C)C(=O)N2 [TPII, tachyplesin II] (HELM PEPTIDE1{R.W.C.F.R.V.C.Y.R.G.I.C.Y.R.K.C.R.[am]}$PEPTIDE1,PEPTIDE1,3:R3-16:R3|PEPTIDE1,PEPTIDE1,7:R3-12:R3$$$V2.0; N-terminus and C-terminus assumed; bridges inferred)
[1]; AMP-adapted line BAC5_3
  Fold change in minimum inhibitory concentration (MIC): 1
  Relative MIC (MICevolved / MICcontrol): 1
[1]; AMP-adapted line BAC5_5
  Fold change in minimum inhibitory concentration (MIC): 1
  Relative MIC (MICevolved / MICcontrol): 1
[1]; AMP-adapted line BAC5_7
  Fold change in minimum inhibitory concentration (MIC): 1.1
  Relative MIC (MICevolved / MICcontrol): 1.1
[1]; AMP-adapted line BAC5_10
  Fold change in minimum inhibitory concentration (MIC): 1.1
  Relative MIC (MICevolved / MICcontrol): 1.1
[1]; AMP-adapted line CAP18_2
  Fold change in minimum inhibitory concentration (MIC): 1.1
  Relative MIC (MICevolved / MICcontrol): 1.1
[1]; AMP-adapted line CAP18_5
  Fold change in minimum inhibitory concentration (MIC): 1
  Relative MIC (MICevolved / MICcontrol): 1
[1]; AMP-adapted line CAP18_6
  Fold change in minimum inhibitory concentration (MIC): 1
  Relative MIC (MICevolved / MICcontrol): 1
[1]; AMP-adapted line CAP18_8
  Fold change in minimum inhibitory concentration (MIC): 1.1
  Relative MIC (MICevolved / MICcontrol): 1.1
[1]; AMP-adapted line CAP18_10
  Fold change in minimum inhibitory concentration (MIC): 1
  Relative MIC (MICevolved / MICcontrol): 1
[1]; AMP-adapted line HBD3_3
  Fold change in minimum inhibitory concentration (MIC): 1.2
  Relative MIC (MICevolved / MICcontrol): 1.2
[1]; AMP-adapted line HBD3_6
  Fold change in minimum inhibitory concentration (MIC): 1.2
  Relative MIC (MICevolved / MICcontrol): 1.2
[1]; AMP-adapted line HBD3_8
  Fold change in minimum inhibitory concentration (MIC): 1.2
  Relative MIC (MICevolved / MICcontrol): 1.2
[1]; AMP-adapted line HBD3_10
  Fold change in minimum inhibitory concentration (MIC): 1.2
  Relative MIC (MICevolved / MICcontrol): 1.2
[1]; AMP-adapted line LL37_1
  Fold change in minimum inhibitory concentration (MIC): 1.1
  Relative MIC (MICevolved / MICcontrol): 1.1
[1]; AMP-adapted line LL37_3
  Fold change in minimum inhibitory concentration (MIC): 1.1
  Relative MIC (MICevolved / MICcontrol): 1.1
[1]; AMP-adapted line LL37_6
  Fold change in minimum inhibitory concentration (MIC): 1
  Relative MIC (MICevolved / MICcontrol): 1
[1]; AMP-adapted line LL37_7
  Fold change in minimum inhibitory concentration (MIC): 1
  Relative MIC (MICevolved / MICcontrol): 1
[1]; AMP-adapted line LL37_10
  Fold change in minimum inhibitory concentration (MIC): 1
  Relative MIC (MICevolved / MICcontrol): 1
[1]; AMP-adapted line PEX_1
  Fold change in minimum inhibitory concentration (MIC): 1.1
  Relative MIC (MICevolved / MICcontrol): 1.1
[1]; AMP-adapted line PEX_4
  Fold change in minimum inhibitory concentration (MIC): 1.2
  Relative MIC (MICevolved / MICcontrol): 1.2
[1]; AMP-adapted line PEX_5
  Fold change in minimum inhibitory concentration (MIC): 1.1
  Relative MIC (MICevolved / MICcontrol): 1.1
[1]; AMP-adapted line PEX_6
  Fold change in minimum inhibitory concentration (MIC): 1
  Relative MIC (MICevolved / MICcontrol): 1
[1]; AMP-adapted line PEX_7
  Fold change in minimum inhibitory concentration (MIC): 1
  Relative MIC (MICevolved / MICcontrol): 1
[1]; AMP-adapted line PR39_1
  Fold change in minimum inhibitory concentration (MIC): 1
  Relative MIC (MICevolved / MICcontrol): 1
[1]; AMP-adapted line PR39_2
  Fold change in minimum inhibitory concentration (MIC): 0.9
  Relative MIC (MICevolved / MICcontrol): 0.9
[1]; AMP-adapted line PR39_5
  Fold change in minimum inhibitory concentration (MIC): 0.9
  Relative MIC (MICevolved / MICcontrol): 0.9
[1]; AMP-adapted line PR39_7
  Fold change in minimum inhibitory concentration (MIC): 0.9
  Relative MIC (MICevolved / MICcontrol): 0.9
[1]; AMP-adapted line PR39_10
  Fold change in minimum inhibitory concentration (MIC): 0.9
  Relative MIC (MICevolved / MICcontrol): 0.9
[1]; AMP-adapted line PROA_2
  Fold change in minimum inhibitory concentration (MIC): 1.1
  Relative MIC (MICevolved / MICcontrol): 1.1
[1]; AMP-adapted line PROA_3
  Fold change in minimum inhibitory concentration (MIC): 0.8
  Relative MIC (MICevolved / MICcontrol): 0.8
[1]; AMP-adapted line PROA_7
  Fold change in minimum inhibitory concentration (MIC): 1
  Relative MIC (MICevolved / MICcontrol): 1
[1]; AMP-adapted line PROA_8
  Fold change in minimum inhibitory concentration (MIC): 1
  Relative MIC (MICevolved / MICcontrol): 1
[1]; AMP-adapted line PROA_9
  Fold change in minimum inhibitory concentration (MIC): 1.1
  Relative MIC (MICevolved / MICcontrol): 1.1
[1]; AMP-adapted line PXB_2
  Fold change in minimum inhibitory concentration (MIC): 1.1
  Relative MIC (MICevolved / MICcontrol): 1.1
[1]; AMP-adapted line PXB_5
  Fold change in minimum inhibitory concentration (MIC): 1
  Relative MIC (MICevolved / MICcontrol): 1
[1]; AMP-adapted line PXB_6
  Fold change in minimum inhibitory concentration (MIC): 1.1
  Relative MIC (MICevolved / MICcontrol): 1.1
[1]; AMP-adapted line PXB_8
  Fold change in minimum inhibitory concentration (MIC): 1
  Relative MIC (MICevolved / MICcontrol): 1
[1]; AMP-adapted line PXB_10
  Fold change in minimum inhibitory concentration (MIC): 1.1
  Relative MIC (MICevolved / MICcontrol): 1.1
[1]; cross-resistance = minimum of twofold increase in resistance level
  cross-resistance of the 38 AMP-resistant lines to the AMP (in words): none of the 38 AMP-resistant lines displayed cross-resistance; also recorded: no cross-resistance
E.coli K-12 BW25113; [11]
  MIC (freshly prepared AMP): 5 µg/mL
  MIC (pre-incubated AMP): 6 µg/mL
E.coli K-12 BW25113; [12]
  MIC (freshly prepared AMP): 5 µg/mL
  MIC (pre-incubated AMP): 6 µg/mL
E.coli K-12 BW25113; [13]
  MIC (freshly prepared AMP): 5 µg/mL
  MIC (pre-incubated AMP): 6 µg/mL

## SWLSKTAKKLENSAKKRISEGIAIAIQGGPR [CP1, Cecropin P1]
[2]
  MIC: > 9.6 µM
[3]
  MIC: 1.2 µM
[4]
  MIC: 1.2 µM
[5]
  MIC: 1.2 µM
[6]
  MIC: 1.2 µM
[7]
  MIC: > 9.6 µM
[8]
  MIC: 0.6 to 1.2 µM
[9]
  MIC: > 9.6 µM
[10]
  MIC: 2.4 µM
K. pneumoniae ATCC 10031
  MIC: 1.2 to 2.4 µM
E. coli ATCC 25922
  MIC: 1.2 µM

From PMC6778101 (Nature Communications, 2019)
